Data on 1 molecule can be found in ChEMBL document CHEMBL4321794, “Discovery and Optimization of 2-Arylquinazolin-4-ones into a Potent and Selective Tankyrase Inhibitor Modulating Wnt Pathway Activity” (J Med Chem, 2019).

Data set [1] in a line: Intrinsic clearance in mouse hepatocytes assessed per million cells. The data set is classed as ADME, cell-based, Hepatocyte. The conditions noted are these: read-out: CLH.
In data set [2] the target is T1, Protein mono-ADP-ribosyltransferase PARP12 (Homo sapiens, UniProt Q9H0J9).
T1 sequence (Q9H0J9 whole entry): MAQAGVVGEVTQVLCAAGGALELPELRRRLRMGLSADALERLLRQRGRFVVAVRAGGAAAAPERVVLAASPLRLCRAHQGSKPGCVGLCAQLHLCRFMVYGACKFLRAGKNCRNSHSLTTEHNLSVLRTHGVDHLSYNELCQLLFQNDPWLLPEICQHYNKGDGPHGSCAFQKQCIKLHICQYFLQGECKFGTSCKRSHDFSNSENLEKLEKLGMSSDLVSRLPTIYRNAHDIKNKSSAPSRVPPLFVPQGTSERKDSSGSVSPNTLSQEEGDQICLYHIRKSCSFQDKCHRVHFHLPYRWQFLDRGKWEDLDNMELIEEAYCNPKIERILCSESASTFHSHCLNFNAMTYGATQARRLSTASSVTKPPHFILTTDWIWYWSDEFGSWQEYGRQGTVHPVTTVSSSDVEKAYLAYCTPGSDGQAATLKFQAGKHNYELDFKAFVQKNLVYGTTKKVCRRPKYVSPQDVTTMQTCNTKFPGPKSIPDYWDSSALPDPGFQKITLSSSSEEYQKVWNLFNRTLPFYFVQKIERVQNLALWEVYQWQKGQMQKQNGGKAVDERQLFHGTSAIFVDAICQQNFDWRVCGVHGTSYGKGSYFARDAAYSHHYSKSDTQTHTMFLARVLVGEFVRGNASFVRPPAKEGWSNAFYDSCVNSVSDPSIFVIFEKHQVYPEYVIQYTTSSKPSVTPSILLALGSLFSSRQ
In words: Inhibition of human N-terminal His/GST-tagged PARP12 (500 to 701 residues) expressed in baculovirus infected Sf9 insect cells using biotinylated substrate by chemiluminescence method.

The nature of data set [3]: Intrinsic clearance in mouse liver microsomes assessed per mg protein in presence of NADPH by UPLC analysis. The format is ADME, Microsome. The conditions noted are these: read-out: CLH.
The target in data set [4] is T2, Protein mono-ADP-ribosyltransferase PARP8 (Homo sapiens, UniProt Q8N3A8).
T2 sequence (Q8N3A8 whole entry): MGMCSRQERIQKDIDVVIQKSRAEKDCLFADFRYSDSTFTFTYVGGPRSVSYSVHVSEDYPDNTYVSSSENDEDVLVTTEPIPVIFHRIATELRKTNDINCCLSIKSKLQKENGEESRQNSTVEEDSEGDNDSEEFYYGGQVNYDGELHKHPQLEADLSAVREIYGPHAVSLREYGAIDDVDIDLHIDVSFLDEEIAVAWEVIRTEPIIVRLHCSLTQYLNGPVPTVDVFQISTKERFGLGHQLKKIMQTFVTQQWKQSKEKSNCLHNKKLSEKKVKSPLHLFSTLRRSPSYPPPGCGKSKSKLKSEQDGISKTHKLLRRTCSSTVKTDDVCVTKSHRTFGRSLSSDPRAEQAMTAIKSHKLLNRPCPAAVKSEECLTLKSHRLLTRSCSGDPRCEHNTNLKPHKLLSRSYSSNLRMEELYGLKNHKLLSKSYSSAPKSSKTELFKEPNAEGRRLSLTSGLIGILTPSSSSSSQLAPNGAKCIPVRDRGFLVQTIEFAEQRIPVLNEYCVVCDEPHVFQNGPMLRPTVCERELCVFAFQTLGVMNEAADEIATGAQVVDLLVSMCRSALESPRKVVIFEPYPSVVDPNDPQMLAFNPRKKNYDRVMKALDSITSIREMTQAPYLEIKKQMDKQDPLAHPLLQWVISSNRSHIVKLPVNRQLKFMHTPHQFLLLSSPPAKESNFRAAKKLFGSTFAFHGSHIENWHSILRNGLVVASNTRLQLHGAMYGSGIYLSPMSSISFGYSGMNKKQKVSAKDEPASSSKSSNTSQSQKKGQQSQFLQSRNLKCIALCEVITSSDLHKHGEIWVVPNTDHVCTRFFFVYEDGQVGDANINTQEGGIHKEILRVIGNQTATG
Nature of the data set: Inhibition of human recombinant PARP8 by chemiluminescence method.

Structures are written as SMILES. Some results are limits rather than exact numbers.

On to `CC(C)(O)c1ccc(-c2nc3c(F)cc(F)cc3c(=O)[nH]2)cc1`, for which the hepatocyte CLint in data set [1] is 15.2 µL/min/1e6 cells. Also, the IC50 in data set [2] and in data set [4] was > 10 µM each time. In addition, the microsomal CLint in data set [3] was 22 µL/min/mg.
